Results: PubChem BioAssay AID248 (DTP/NCI, 2004)
Several values for one entry are separate records, joined by “and”; a condition that tells them apart may be missing. Identical values can stand only once. Inconclusive results and toxic doses are left out. Rule as the data show it: active = T/C of 150% or more; inactive = T/C below 125%.

Test system: L1210 leukemia ip in BDF1 mice, survival T/C
Assay: NCI In Vivo Anticancer Drug Screen. Data for tumor model L1210 Leukemia (intraperitoneal) in B6D2F1 (BDF1) mice
Conditions: endpoint: mean survival time, higher = longer survival
Procedure, shortened: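 Each compound was tested against a transplantable tumor grown in mice. The endpoint was survival, with treated animals benchmarked against vehicle controls as a simple ratio.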

[1] = dose: 100.0 mg/kg/injection, schedule: Q01DX009 (ip), vehicle: saline with Tween-80
[2] = dose: 100.0 mg/kg/injection, schedule: Q04DX002 (ip), vehicle: saline with Tween-80
[3] = dose: 100.0 mg/kg/injection, schedule: Q04DX003 (ip), vehicle: saline with Tween-80
[4] = dose: 200.0 mg/kg/injection, schedule: Q01DX009 (ip), vehicle: saline with Tween-80
[5] = dose: 200.0 mg/kg/injection, schedule: Q04DX002 (ip), vehicle: saline with Tween-80
[6] = dose: 200.0 mg/kg/injection, schedule: Q04DX003 (ip), vehicle: saline with Tween-80
[7] = dose: 400.0 mg/kg/injection, schedule: Q04DX002 (ip), vehicle: saline with Tween-80
[8] = dose: 50.0 mg/kg/injection, schedule: Q01DX009 (ip), vehicle: Klucel (hydroxypropylcellulose) (HPC)
[9] = dose: 100.0 mg/kg/injection, schedule: Q01DX009 (ip), vehicle: Klucel (hydroxypropylcellulose) (HPC)
[10] = dose: 100.0 mg/kg/injection, schedule: Q01DX009 (ip), vehicle: saline
[11] = dose: 100.0 mg/kg/injection, schedule: Q04DX003 (ip), vehicle: saline
[12] = dose: 200.0 mg/kg/injection, schedule: Q01DX009 (ip), vehicle: saline
[13] = dose: 200.0 mg/kg/injection, schedule: Q04DX003 (ip), vehicle: saline
[14] = dose: 100.0 mg/kg/injection, schedule: Q04DX003 (ip), vehicle: Klucel (hydroxypropylcellulose) (HPC)
[15] = dose: 200.0 mg/kg/injection, schedule: Q04DX003 (ip), vehicle: Klucel (hydroxypropylcellulose) (HPC)
[16] = dose: 400.0 mg/kg/injection, schedule: Q04DX003 (ip), vehicle: saline with Tween-80
[17] = dose: 10.0 mg/kg/injection, schedule: Q01DX001 (ip), vehicle: saline
[18] = dose: 40.0 mg/kg/injection, schedule: Q01DX001 (ip), vehicle: saline
[19] = dose: 400.0 mg/kg/injection, schedule: Q01DX009 (ip), vehicle: saline
[20] = dose: 400.0 mg/kg/injection, schedule: Q04DX003 (ip), vehicle: saline
[21] = dose: 400.0 mg/kg/injection, schedule: Q04DX003 (ip), vehicle: Klucel (hydroxypropylcellulose) (HPC)

Measured: T/C

O=C(Nc1cccc(S(=O)(=O)F)c1)Oc1ccc([N+](=O)[O-])cc1
inactive: dose: 100.0 mg/kg/injection, schedule: Q01DX001 (ip), vehicle: saline with Tween-80 100 % of control | [1] 95 % of control and 100 % of control | [2] 91 % of control | [3] 95 % of control | dose: 200.0 mg/kg/injection, schedule: Q01DX001 (ip), vehicle: saline with Tween-80 100 % of control | [4] 98 % of control and 102 % of control | [5] 91 % of control | [6] 100 % of control | dose: 400.0 mg/kg/injection, schedule: Q01DX001 (ip), vehicle: saline with Tween-80 98 % of control | dose: 400.0 mg/kg/injection, schedule: Q01DX009 (ip), vehicle: saline with Tween-80 88 % of control | [7] 90 % of control

COc1ccc([N+](=O)[O-])cc1NC(=O)Nc1cccc(O)c1
inactive: [8] 90 % of control | [9] 90 % of control | dose: 200.0 mg/kg/injection, schedule: Q01DX009 (ip), vehicle: Klucel (hydroxypropylcellulose) (HPC) 90 % of control

O=[N+]([O-])c1cc(/C=N/N2CCN(/N=C/c3ccc(Cl)c([N+](=O)[O-])c3)CC2)ccc1Cl
inactive: dose: 100.0 mg/kg/injection, schedule: Q01DX001 (ip), vehicle: saline 96 % of control | dose: 200.0 mg/kg/injection, schedule: Q01DX001 (ip), vehicle: saline 93 % of control | dose: 400.0 mg/kg/injection, schedule: Q01DX001 (ip), vehicle: saline 90 % of control

O=S(=O)(c1ccc(Br)cc1)C(F)(F)F
inactive: [2] 101 % of control | [5] 101 % of control | [7] 86 % of control

CCCN(CCC)CC(C)=O
inactive: [10] 98 % of control | [11] 107 % of control | [12] 101 % of control | [13] 109 % of control

O=C1OC(=O)C2C3C=CC(CC3)C12 (centres undefined)
inactive: [14] 96 % of control | [11] 98 % of control | [15] 100 % of control | [13] 98 % of control

NC(Cc1c[nH]c2c(N(CCCl)CCCl)cccc12)C(=O)O (centres undefined)
inactive: dose: 0.88 mg/kg/injection, schedule: Q01DX Z (ip), vehicle: methylcellulose (MC) 101 % of control | dose: 1.3 mg/kg/injection, schedule: Q01DX Z (ip), vehicle: methylcellulose (MC) 95 % of control | dose: 2.0 mg/kg/injection, schedule: Q01DX Z (ip), vehicle: methylcellulose (MC) 95 % of control | dose: 3.0 mg/kg/injection, schedule: Q01DX Z (ip), vehicle: methylcellulose (MC) 101 % of control | dose: 5.0 mg/kg/injection, schedule: Q01DX Z (ip), vehicle: methylcellulose (MC) 118 % of control | dose: 40.0 mg/kg/injection, schedule: Q01DX Z (ip), vehicle: methylcellulose (MC) 118 % of control

CCCCCCCCCCCCCCCCCCOB(OCCCCCCCCCCCCCCCCCC)OCCCCCCCCCCCCCCCCCC
inactive: [3] 108 % of control | [6] 108 % of control | [16] 97 % of control

CC(C)C(=O)Nc1cccnc1
inactive: [17] 100 % of control | dose: 20.0 mg/kg/injection, schedule: Q01DX001 (ip), vehicle: saline 103 % of control | [18] 94 % of control

CCCCN1c2ccccc2NP1(=O)c1ccccc1 (centres undefined)
inactive: [3] 94 % of control | [6] 96 % of control | [16] 97 % of control

C=CS(=O)(=O)c1ccc2ccccc2c1
inactive: dose: 10.0 mg/kg/injection, schedule: Q04DX002 (ip), vehicle: Klucel (hydroxypropylcellulose) (HPC) 118 % of control | dose: 20.0 mg/kg/injection, schedule: Q04DX002 (ip), vehicle: Klucel (hydroxypropylcellulose) (HPC) 96 % of control | dose: 40.0 mg/kg/injection, schedule: Q04DX002 (ip), vehicle: Klucel (hydroxypropylcellulose) (HPC) 100 % of control

COC(=O)N1C=C2C(C)=CC1C(C#N)(C#N)C2(C#N)C#N (centres undefined)
inactive: [17] 105 % of control and 87 % of control | [18] 98 % of control

C=CCOCCC(=O)OCC=C
inactive: [8] 95 % of control | [9] 92 % of control | [11] 103 % of control | [13] 103 % of control

CC1(C)OC(=O)CC(=O)O1
inactive: [1] 94 % of control | [10] 100 % of control | [11] 91 % of control | [4] 94 % of control | [12] 93 % of control | [13] 91 % of control | [19] 87 % of control | [20] 93 % of control

O=C(Nc1ccc(Cl)cc1C(=O)c1ccccc1)c1ccc(Cl)cc1
inactive: dose: 100.0 mg/kg/injection, schedule: Q04DX002 (ip), vehicle: Klucel (hydroxypropylcellulose) (HPC) 92 % of control | dose: 200.0 mg/kg/injection, schedule: Q04DX002 (ip), vehicle: Klucel (hydroxypropylcellulose) (HPC) 89 % of control | dose: 400.0 mg/kg/injection, schedule: Q04DX002 (ip), vehicle: Klucel (hydroxypropylcellulose) (HPC) 95 % of control

COc1cccc2c1CCc1cc3c(nc1-2)-c1cccc(OC)c1CC3
inactive: [14] 103 % of control | [15] 100 % of control | [21] 101 % of control

CCN1CCC(c2ccccc2)(c2ccccc2)C1=N
inactive: dose: 75.0 mg/kg/injection, schedule: Q01DX001 (ip), vehicle: carboxymethylcellulose (CMC) 89 % of control

Cc1ccc([N+](=O)[O-])cc1NC(=O)Nc1ccccc1O
inactive: [9] 92 % of control | dose: 400.0 mg/kg/injection, schedule: Q01DX009 (ip), vehicle: Klucel (hydroxypropylcellulose) (HPC) 87 % of control

CC1(NCCOC(=O)c2ccc(N)cc2)CCCCC1
inactive: dose: 75.0 mg/kg/injection, schedule: Q01DX001 (ip), vehicle: saline 100 % of control | dose: 150.0 mg/kg/injection, schedule: Q01DX001 (ip), vehicle: saline 100 % of control

O=[N+]([O-])c1ccc(/C=C/c2ccc([N+](=O)[O-])cc2S(=O)(=O)O)c(S(=O)(=O)O)c1
inactive: [11] 94 % of control | [13] 96 % of control | [20] 96 % of control

O=C(Cn1ccc(O)cc1=O)N1CCC2(CC1)SSC1(CCN(C(=O)Cn3ccc(O)cc3=O)CC1)S2
inactive: [10] 86 % of control | [11] 102 % of control | [12] 93 % of control | [13] 94 % of control | [19] 94 % of control | [20] 88 % of control

O=S(=O)(O)CCS(=O)(=O)O
inactive: dose: 50.0 mg/kg/injection, schedule: Q01DX001 (ip), vehicle: carboxymethylcellulose (CMC) 97 % of control | dose: 100.0 mg/kg/injection, schedule: Q01DX001 (ip), vehicle: carboxymethylcellulose (CMC) 100 % of control | dose: 200.0 mg/kg/injection, schedule: Q01DX001 (ip), vehicle: carboxymethylcellulose (CMC) 97 % of control | dose: 400.0 mg/kg/injection, schedule: Q01DX001 (ip), vehicle: carboxymethylcellulose (CMC) 97 % of control

CCOC(=O)CCN(C(=O)Nc1ccccc1)C1CCCCC1
inactive: dose: 100.0 mg/kg/injection, schedule: Q01DX Z (ip), vehicle: methylcellulose (MC) 92 % of control | dose: 200.0 mg/kg/injection, schedule: Q01DX Z (ip), vehicle: methylcellulose (MC) 97 % of control

O=C(O)COc1cc(OCC(=O)O)c([N+](=O)[O-])cc1[N+](=O)[O-]
inactive: [14] 102 % of control | [15] 102 % of control | [21] 91 % of control
